Test results: ChEMBL document CHEMBL4483862, “Open-source discovery of chemical leads for next-generation chemoprotective antimalarials” (2018)

Tested on: Plasmodium berghei
Assay: Luciferase/luciferin-expressing antifolate-resistant parasites were used to infect a culture of HepG2 cells that were pre-incubated with compounds. Infected hepatocytes emit light due to the luciferase reaction. Assay results are presented as the percent inhibition of light emission compared to control. […]
Format: functional
Details: sporozoite; for IC90: read-out: LUCIFERASE INFECTION ASSAY - IC90
[1] = read-out: LUCIFERASE INFECTION ASSAY - IC50

| SMILES | IC90 | IC50 [1] | other results |
| --- | --- | --- | --- |
| COc1ccc2[nH]c(C)c(-c3csc(NC(=O)c4ccccn4)n3)c2c1 | > 9.06 µM |  | IC50 (PBLUC_HILL_SLOPE 10.6, PBLUC_R_SQUARED 0.566, read-out: LUCIFERASE INFECTION ASSAY - IC50): 7.84 µM |
| CC(C)c1ccc(/C=C2\CCn3c2nc(=O)c2ccccc23)cc1 | > 10.4 µM |  | IC50 (PBLUC_HILL_SLOPE 2.01, PBLUC_R_SQUARED 0.333, read-out: LUCIFERASE INFECTION ASSAY - IC50): 4.19 µM |
| COc1cc(C(=O)Nc2ccc(Cn3cncn3)cc2)ccc1Oc1ccc(Cl)cc1[N+](=O)[O-] | 6.19 µM |  | IC50 (PBLUC_HILL_SLOPE 72.9, PBLUC_R_SQUARED 0.579, read-out: LUCIFERASE INFECTION ASSAY - IC50): 6.01 µM |
| O=S(=O)(/C=C/c1ccccc1)N1CCCC(c2nc3ccccc3s2)C1 (stereo unspecified) | > 10 µM |  | IC50 (PBLUC_HILL_SLOPE 2.87, PBLUC_R_SQUARED 0.652, read-out: LUCIFERASE INFECTION ASSAY - IC50): > 10 µM |
| O=c1c(Cl)c(Cl)cnn1-c1ccc(S(=O)(=O)Oc2ccccc2F)cc1 | 8.08 µM |  | IC50 (FFLUC_HILL_SLOPE 1.28, FFLUC_R_SQUARED 0.46, HEPG2TOX_HILL_SLOPE 12.5, HEPG2TOX_R_SQUARED 0.895, PBLUC_HILL_SLOPE 2.73, PBLUC_R_SQUARED 0.311, read-out: LUCIFERASE INFECTION ASSAY - IC50): 3.61 µM |
| O=C(CSc1ccc(S(=O)(=O)N2CCOCC2)cn1)NC(c1ccccc1)c1cccs1 (stereo unspecified) | > 10 µM | > 10 µM |  |
| COc1ccccc1-c1nc2c3c(C)c(C)n(-c4ccccc4OC)c3ncn2n1 | 7.51 µM |  | IC50 (HEPG2TOX_HILL_SLOPE 8.61, HEPG2TOX_R_SQUARED 0.202, PBLUC_HILL_SLOPE 3.56, PBLUC_R_SQUARED 0.654, read-out: LUCIFERASE INFECTION ASSAY - IC50): 4.05 µM |
| Cc1ccc(NC(=O)COCc2nc3ccccc3s2)cc1S(=O)(=O)Nc1ccccc1F | > 10 µM |  | IC50 (HEPG2TOX_HILL_SLOPE 2.14, HEPG2TOX_R_SQUARED 0.975, PBLUC_HILL_SLOPE 2, PBLUC_R_SQUARED 0.573, read-out: LUCIFERASE INFECTION ASSAY - IC50): 4.27 µM |
| Cc1nn2c(nc(Sc3nc4ccccc4o3)c3ccccc32)c1/C=N/NC(=O)c1cccc(S(=O)(=O)N2CCOCC2)c1 | > 10 µM | > 10 µM |  |
| CC(C)c1ccc(CSc2nnc(CC3CCS(=O)(=O)C3)o2)cc1 (stereo unspecified) | > 10 µM | > 10 µM |  |
| CCOc1cc2c(cc1CNC(=O)Cn1cnc3c(cnn3-c3ccccc3)c1=O)OC(C)C2 (stereo unspecified) | > 10 µM |  | IC50 (FFLUC_HILL_SLOPE 95.3, FFLUC_R_SQUARED 0.504, HEPG2TOX_HILL_SLOPE 1.9, HEPG2TOX_R_SQUARED 0.749, read-out: LUCIFERASE INFECTION ASSAY - IC50): > 10 µM |
| NC1=NC(=O)C(Cc2ccc(OC(F)(F)F)cc2)S1 (stereo unspecified) | 1.02 µM |  | IC50 (PBLUC_HILL_SLOPE 3.06, PBLUC_R_SQUARED 0.937, read-out: LUCIFERASE INFECTION ASSAY - IC50): 0.497 µM |
| COc1ccccc1-n1c(SCC(=O)NNC(=O)c2ccc([N+](=O)[O-])cc2)nc2ccccc2c1=O | > 10 µM |  | IC50 (FFLUC_HILL_SLOPE 2.82, FFLUC_R_SQUARED 0.966, read-out: LUCIFERASE INFECTION ASSAY - IC50): > 10 µM |
| COc1ccc(C(=O)COC(=O)Cc2cccc(C(F)(F)F)c2)cc1 | 1.69 µM |  | IC50 (HEPG2TOX_HILL_SLOPE 1.29, HEPG2TOX_R_SQUARED 0.956, PBLUC_HILL_SLOPE 8.73, PBLUC_R_SQUARED 0.385, read-out: LUCIFERASE INFECTION ASSAY - IC50): 1.32 µM |
| CC(C)(C)c1ccc(C(=O)NC(=S)Nc2nc3c(s2)CCCC3)cc1 | 8.77 µM |  | IC50 (PBLUC_HILL_SLOPE 2.3, PBLUC_R_SQUARED 0.829, read-out: LUCIFERASE INFECTION ASSAY - IC50): 3.37 µM |
| Cc1ccccc1NC(=S)N/N=C/c1ccccc1[N+](=O)[O-] | 3.66 µM |  | IC50 (HEPG2TOX_HILL_SLOPE 11.4, HEPG2TOX_R_SQUARED 0.668, PBLUC_HILL_SLOPE 15.4, PBLUC_R_SQUARED 0.358, read-out: LUCIFERASE INFECTION ASSAY - IC50): 3.17 µM |
| CC(=O)c1cccc(-c2ccc3ncc(-c4cccc(O)c4)n3n2)c1 | 3.6 µM |  | IC50 (HEPG2TOX_HILL_SLOPE 4.7, HEPG2TOX_R_SQUARED 0.977, PBLUC_HILL_SLOPE 30, PBLUC_R_SQUARED 0.547, read-out: LUCIFERASE INFECTION ASSAY - IC50): 3.34 µM |
| COc1ccc(-c2nn(-c3ccccc3)cc2/C=N/Nc2ncc(C(F)(F)F)cc2Cl)cc1OC | 2.33 µM |  | IC50 (HEPG2TOX_HILL_SLOPE 13.4, HEPG2TOX_R_SQUARED 0.529, PBLUC_HILL_SLOPE 3.64, PBLUC_R_SQUARED 0.734, read-out: LUCIFERASE INFECTION ASSAY - IC50): 1.27 µM |
| Cn1cc(-c2cc3cnc(Nc4ccc(C(N)=O)cc4)cc3n2Cc2ccccc2)cn1 | > 10 µM | > 10 µM |  |
| COc1ccc(/C=C(/C(=O)c2cccs2)N2C=CC=CC2=C(C#N)C#N)cc1 | > 10 µM | > 10 µM |  |
| COc1ccc(-c2csc3ncnc(NC4CCN(CC(N)=O)CC4)c23)cc1 | 8.68 µM | 5.11 µM |  |
| CN(C)S(=O)(=O)c1ccc2oc3nnc(SCc4csc(-c5ccccc5)n4)n3c2c1 | > 10 µM | > 10 µM |  |

| SMILES | IC90 | IC50 [1] | other results |
| --- | --- | --- | --- |
| CCN(c1ccc(NC(=S)Nc2cccc3ccccc23)cc1)C(C)C | > 10 µM |  | IC50 (HEPG2TOX_HILL_SLOPE 1.56, HEPG2TOX_R_SQUARED 0.289, PBLUC_HILL_SLOPE 3.28, PBLUC_R_SQUARED 0.342, read-out: LUCIFERASE INFECTION ASSAY - IC50): 5.97 µM |
| N#Cc1ccc(N2CCCN(C(=O)Nc3cc(Cl)cc(Cl)c3)CC2)nc1 | > 8.46 µM | > 8.46 µM |  |
| COCCNc1nc2cnc(-c3ccc4ccccc4c3)cc2n1C | > 10 µM |  | IC50 (FFLUC_HILL_SLOPE 5.54, FFLUC_R_SQUARED 0.844, PBLUC_HILL_SLOPE 0.43, PBLUC_R_SQUARED 0.895, read-out: LUCIFERASE INFECTION ASSAY - IC50): 0.13 µM |
| Oc1cccc(-c2nccc3n[nH]c(-c4cccc(F)c4)c23)c1 | > 10 µM |  | IC50 (PBLUC_HILL_SLOPE 3.75, PBLUC_R_SQUARED 0.113, read-out: LUCIFERASE INFECTION ASSAY - IC50): 6.03 µM |
| O=C(NC1CCSc2ccc(Cl)cc21)c1cc(Br)c[nH]1 (stereo unspecified) | > 10 µM |  | IC50 (FFLUC_HILL_SLOPE 30.3, FFLUC_R_SQUARED 0.512, PBLUC_HILL_SLOPE 1.67, PBLUC_R_SQUARED 0.28, read-out: LUCIFERASE INFECTION ASSAY - IC50): 5.71 µM |
| O=C(/C=C/c1ccc(F)cc1)Nc1cc([N+](=O)[O-])c(F)cc1F | > 10 µM |  | IC50 (HEPG2TOX_HILL_SLOPE 14.4, HEPG2TOX_R_SQUARED 0.364, PBLUC_HILL_SLOPE 4.24, PBLUC_R_SQUARED 0.457, read-out: LUCIFERASE INFECTION ASSAY - IC50): 8.62 µM |
| COC(=O)c1c(NC(C)=O)c2cc(NC(C)CC(C)C)cnc2n1CCC(C)C (stereo unspecified) | > 8.2 µM | > 8.2 µM |  |
| CS(=O)(=O)c1ncc(Cl)c(C(=O)C(C#N)c2ccc3ccccc3n2)n1 (stereo unspecified) | 4.88 µM |  | IC50 (HEPG2TOX_HILL_SLOPE 3.45, HEPG2TOX_R_SQUARED 0.508, PBLUC_HILL_SLOPE 8.67, PBLUC_R_SQUARED 0.634, read-out: LUCIFERASE INFECTION ASSAY - IC50): 3.78 µM |
| CCS(=O)(=O)c1ncc(Cl)c(C(=O)Nc2ccccc2C(F)(F)F)n1 | 4.41 µM |  | IC50 (HEPG2TOX_HILL_SLOPE 4.53, HEPG2TOX_R_SQUARED 0.715, PBLUC_HILL_SLOPE 8.07, PBLUC_R_SQUARED 0.684, read-out: LUCIFERASE INFECTION ASSAY - IC50): 3.36 µM |
| OC(c1ccc(Cl)c(F)c1)c1nc(-c2cccc(C(F)(F)F)c2)c[nH]1 (stereo unspecified) | > 8.9 µM |  | IC50 (FFLUC_HILL_SLOPE 12.1, FFLUC_R_SQUARED 0.0756, read-out: LUCIFERASE INFECTION ASSAY - IC50): > 8.9 µM |
| COc1cccc(C(c2c(-c3ccccc3)n(O)c3ccccc23)N2CCOCC2)c1 (stereo unspecified) | > 10 µM |  | IC50 (FFLUC_HILL_SLOPE 161, FFLUC_R_SQUARED 0.573, read-out: LUCIFERASE INFECTION ASSAY - IC50): > 10 µM |
| CC(NC(=O)C1CCCN(C(=O)OC(C)(C)C)C1)c1ccc(-n2ccnc2)cc1 (stereo unspecified) | > 2 µM | > 2 µM |  |
| O=C(O)C1CSC(c2ccccc2)N1 (stereo unspecified) | > 15.8 µM | > 15.8 µM |  |
| Cc1ccc(CSc2nnc(OC(=O)N(C)C)n2-c2cccc(Cl)c2)cc1 | > 8.19 µM |  | IC50 (PBLUC_HILL_SLOPE 1.76, PBLUC_R_SQUARED 0.153, read-out: LUCIFERASE INFECTION ASSAY - IC50): 6.97 µM |
| O=C(C1CCCN(c2cnccn2)C1)N1CCN(C(c2ccc(F)cc2)c2ccc(F)cc2)CC1 (stereo unspecified) | > 10 µM |  | IC50 (PBLUC_HILL_SLOPE 27.2, PBLUC_R_SQUARED 0.0353, read-out: LUCIFERASE INFECTION ASSAY - IC50): 9.76 µM |
| O=C(COc1ccccc1C(=O)Nc1nc(-c2ccccc2)cs1)Nc1cccc(C(F)(F)F)c1 | 5.93 µM |  | IC50 (HEPG2TOX_HILL_SLOPE 11.2, HEPG2TOX_R_SQUARED 0.982, PBLUC_HILL_SLOPE 4.71, PBLUC_R_SQUARED 0.747, read-out: LUCIFERASE INFECTION ASSAY - IC50): 3.72 µM |
| CC(C)c1ccc(-c2ccc3nnc(-c4ccc(OCCCN(C)C)cc4)n3c2)cc1 | > 10 µM | > 10 µM |  |
| CN(C)C(CNc1cc(C(=O)NC2CC2)c2ccccc2n1)Cc1ccccc1 (stereo unspecified) | > 10 µM | > 10 µM |  |
| COc1ncccc1C(=O)Nc1cc(Cl)cc(Cl)c1 | 3.83 µM |  | IC50 (PBLUC_HILL_SLOPE 56, PBLUC_R_SQUARED 0.566, read-out: LUCIFERASE INFECTION ASSAY - IC50): 3.68 µM |
| O=C1COc2ccc(-c3cs/c(=N\c4ccc(OC(F)F)cc4)n3Cc3ccco3)cc2N1 | > 10 µM | > 10 µM |  |
| CN(C)c1cccc(-c2cnc3sc(NCCCO)nn23)c1 | > 10.4 µM | > 10.4 µM |  |
